Measurements from paper PMC9227536, “Prediction of Pharmacokinetics of IDP-73152 in Humans Using Physiologically-Based Pharmacokinetics” (Pharmaceutics, 2022).
Read-outs that look alike come from different tables or passages of the source.

Columns and labels:
[1] = Tissue distribution at steady state, constant-rate infusion in rats; type: in vivo; conditions: for Kp at 10 h: 10 h infusion, read-out: KP,ss
Method: In this study, the extent of tissue distribution of IDP-73152 was also determined in rats. Rats received IDP-73152 at a constant rate of infusion (i.e., the rate of 0.8 mg/h (in 0.6 mL/h)) using a syringe pump (PHD ULTRA, Harvard apparatus, Holliston, MA, USA). The steady state was assumed to have been achieved when IDP-73152 was infused for 10 h (see below). Upon completion of the infusion, the animal was sacrificed, and major tissues (i.e., adipose tissue, brain, heart, kidney, liver, lung, muscle, skin, spleen, and testis) were collected. Assuming the density of tissues to be 1 g/mL, tissue samples were homogenized in twice their volume of phosphate buffered saline using a homogenizer (Ultra Turrax homogenizer, IKA-Werke GmbH & Co. KG, Staufen, Germany). Plasma samples and tissue homogenates were stored at −80 °C until analysis. The tissue-to-plasma concentration ratio at steady state (KP,ss) was then calculated for each tissue using the following equation [23, 24, 25]:(8) KP,ss=Ctissue,ss/Cplasma,ss, where Ctissue,ss and Cplasma,ss represent the concentration of the compound in the tissue and plasma at steady-state.
For the estimation of the volume of the distribution of IDP-73512 in rats, the steady-state volume of distribution (Vss) was calculated using the following equation [30]:(10) Vss=VP+Vrbc×EP+∑VT,i×KP,ss,i, where Vp, Vrbc, and VT,i are the volumes of plasma, red blood cells, and tissues, respectively. The erythrocyte-to-plasma partition coefficient (EP), is calculated by EP=1+(BP−1)/Hematocrit . The KP,ss for each tissue obtained from Equation (8) was applied for Equation (10). For the case of non-eliminating organs, the KP,ss was regarded as the tissue-to-plasma partition coefficient (KP) in PBPK equations (Appendix A). For the case of the liver—i.e., the eliminating organ—the KP,ss (KP,ss,LI) had to be corrected to account for the equilibrium being altered by the elimination. Thus, a PBPK-operative KP for liver (KP,LI) was calculated using the following equation [31]:(11) KP,LI=KP,ss,LI/(1−ER), where ER is the hepatic extraction ratio of the compound (i.e., CLh/(QLI·BP)). In this study, a compartmental absorption and transit (CAT) model consisting of stomach and five intestinal segments was considered for the description of the intestinal absorption kinetics of IDP-73152 in animals and humans. We assumed that the initial compartment denoted the stomach (Equation (12)), and the subsequent three compartments represented the small intestine and two additional compartments for the large intestine (i.e., a total of six compartments, with absorption occurring in the five intestinal compartments) (Equation (13)). The differential equations describing the rate of drug absorption and transit in the gastrointestinal tract can be written as: […]

[2] = Blood partitioning (LC-MS/MS-based depletion method), human; type: in vitro ADME; conditions: whole blood, humans blood, 0.3, 1, 3 μM, read-out: BP (blood-to-plasma concentration ratio)
Method: (§1) In this study, the partitioning of IDP-73152 in blood samples obtained from mice, rats, dogs, and humans was determined using the LC-MS/MS-based depletion method with slight modifications. DP-73152 was added to an aliquot (1 mL) of blank blood or plasma at a final concentration of 0.3, 1, or 3 μM. The mixture was incubated at 37 °C in a water bath for 60 min. After the incubation, the plasma was separated by centrifugation of the blood samples for 5 min at 10,000× g/4 °C and stored at -80 °C until analysis. The blood-to-plasma concentration ratio (BP) was calculated using the equation:(3) BP=[…], where […] is the concentration of the compound at the corresponding blood concentration in the plasma, and CPL is the concentration from the plasma sample separated from the incubated blood.

[3] = set-up: method as in PMID 31440032; conditions: cited from earlier work; for Observed AUCinf / Observed Cmax: humans, fasting
[4] = system: vancomycin-resistant Enterococcus faecium; conditions: infected mice, twice-a-day dosing; cited from earlier work
[5] = Unbound fraction in plasma (rapid equilibrium dialysis), dog; type: in vitro ADME; conditions: dogs plasma, 0.3, 1, 3 μM, RED 5 h, read-out: fu,p
Method: The unbound fractions of IDP-73152 in various matrices were measured according to the manufacturer’s instructions for the rapid equilibrium dialysis (RED) device (ThermoFisher Scientific, Waltham, MA, USA). Briefly, IDP-73152 was added to the plasma or the microsomal/hepatocyte incubation buffer from various species (i.e., mouse, rat, dog, and human for microsomal incubation; rat for hepatocyte incubation) to obtain final concentrations of the compound at 0.3, 1, and 3 μM. After the membrane insert was placed in the RED plate, the solution containing IDP-73152 was added (400 µL) to the sample chamber, and the dialysis buffer (600 μL) was added to the buffer chamber. The RED plate was sealed with parafilm and then incubated at 37 °C in the orbital shaker (Lab Companion, Daejeon, Korea) at 100 rpm for 5 h. After a 50 μL aliquot was aspirated from both the sample and buffer chambers, an equal volume of protein-free buffer or blank medium was replaced in the aspirated sample or buffer to render the matrices compositionally identical. The IDP-73152 concentration in the buffer/sample chambers (i.e., CBuffer Chamber and CSample Chamber) was determined by an assay. Thus, the fraction unbound was defined as:(2) % Fraction unbound=(CBuffer Chamber/CSample Chamber)×100%

[6] = Blood partitioning (LC-MS/MS-based depletion method), dog; type: in vitro ADME; conditions: whole blood, dogs blood, 0.3, 1, 3 μM, read-out: BP (blood-to-plasma concentration ratio)
Method: as §1

Structure (SMILES): CC(C)(C)[C@H](NC(=O)[C@H](CC1CCCC1)CN(O)C=O)C(=O)N1CCC(NCc2cc(F)c(F)cc2F)CC1 [IDP-73152]
- Kp at 10 h ([1]; Sprague Dawley, rat, intravenous, 0.8 mg/h, adipose tissue): 0.853 ± 0.196
- Kp at 10 h ([1]; Sprague Dawley, rat, intravenous, 0.8 mg/h, brain): 0.0729 ± 0.0167
- Kp at 10 h ([1]; Sprague Dawley, rat, intravenous, 0.8 mg/h, heart): 2.15 ± 0.22
- Kp at 10 h ([1]; Sprague Dawley, rat, intravenous, 0.8 mg/h, kidney): 8.68 ± 1.83
- Kp at 10 h ([1]; Sprague Dawley, rat, intravenous, 0.8 mg/h, liver): 12.2 ± 3.3
- Kp at 10 h ([1]; Sprague Dawley, rat, intravenous, 0.8 mg/h, lung): 7.13 ± 1.28
- Kp at 10 h ([1]; Sprague Dawley, rat, intravenous, 0.8 mg/h, muscle): 1.37 ± 0.3
- Kp at 10 h ([1]; Sprague Dawley, rat, intravenous, 0.8 mg/h, skin): 1.08 ± 0.38
- Kp at 10 h ([1]; Sprague Dawley, rat, intravenous, 0.8 mg/h, spleen): 4.82 ± 1.3
- Kp at 10 h ([1]; Sprague Dawley, rat, intravenous, 0.8 mg/h, testis): 0.338 ± 0.089
- plasma concentration during infusion ([1]; intravenous infusion 0.8 mg/h, 10 h): 2120 ± 340 ng/mL
- Vd ([1]; male, Sprague Dawley, rat, plasma and tissue homogenates, intravenous, 0.8 mg/h, from KP,ss of ten tissues, read-out: Vss calculated by Equation (10)): 2.09 L/kg
- concentration at 10 h ([1]; male, Sprague Dawley, rat, plasma, intravenous infusion 0.8 mg/h for 10 h, from CLp, read-out: expected steady-state concentration): 2120 ± 340 ng/mL
- concentration at 8 h ([1]; male, Sprague Dawley, rat, plasma, intravenous infusion 0.8 mg/h, 8 h, read-out: plasma concentration during infusion): 2070 ± 360 ng/mL
- concentration at 9 h ([1]; male, Sprague Dawley, rat, plasma, intravenous infusion 0.8 mg/h, 9 h, read-out: plasma concentration during infusion): 1910 ± 270 ng/mL
- blood plasma ratio at 60 min [2]: 1.24 ± 0.08
- adverse effects ([3]; human subjects, single oral dose of 40–1280 mg): without clinically significant adverse effects
- Observed AUCinf ([3]; single oral 640 mg): 43400 ± 4470 ng·h/mL
- Observed Cmax ([3]; single oral 640 mg): 8920 ± 1170 ng/mL
- Observed AUCinf ([3]; single oral 1280 mg): 77400 ± 15400 ng·h/mL
- Observed Cmax ([3]; single oral 1280 mg): 13200 ± 2500 ng/mL
- ED50 (oral dose at which the survival rate was 50%) [4]: 13.3 mg/kg
- fraction unbound at 5 h [5]: 0.0547 ± 0.0053
- blood plasma ratio at 60 min [6]: 1.45 ± 0.11
